According to US20060128695A1, “Cyclic nucleotide phosphodiesterase inhibitors, preparation and uses” (NEURO3D, priority 2002, published 2006):
pIC50: −log10 of the molar value.

What follows are compounds tested against T1, PDE2 (Bos taurus, UniProt P14099) (assay: Inhibition of PDE2, radioenzymatic phosphodiesterase assay). Details: not given.
T1 construct: PDE2 was prepared from bovine endothelial cells by the same methods; endogenous in cells; host or cells: bovine endothelial cells
T1 sequence (P14099 1-921): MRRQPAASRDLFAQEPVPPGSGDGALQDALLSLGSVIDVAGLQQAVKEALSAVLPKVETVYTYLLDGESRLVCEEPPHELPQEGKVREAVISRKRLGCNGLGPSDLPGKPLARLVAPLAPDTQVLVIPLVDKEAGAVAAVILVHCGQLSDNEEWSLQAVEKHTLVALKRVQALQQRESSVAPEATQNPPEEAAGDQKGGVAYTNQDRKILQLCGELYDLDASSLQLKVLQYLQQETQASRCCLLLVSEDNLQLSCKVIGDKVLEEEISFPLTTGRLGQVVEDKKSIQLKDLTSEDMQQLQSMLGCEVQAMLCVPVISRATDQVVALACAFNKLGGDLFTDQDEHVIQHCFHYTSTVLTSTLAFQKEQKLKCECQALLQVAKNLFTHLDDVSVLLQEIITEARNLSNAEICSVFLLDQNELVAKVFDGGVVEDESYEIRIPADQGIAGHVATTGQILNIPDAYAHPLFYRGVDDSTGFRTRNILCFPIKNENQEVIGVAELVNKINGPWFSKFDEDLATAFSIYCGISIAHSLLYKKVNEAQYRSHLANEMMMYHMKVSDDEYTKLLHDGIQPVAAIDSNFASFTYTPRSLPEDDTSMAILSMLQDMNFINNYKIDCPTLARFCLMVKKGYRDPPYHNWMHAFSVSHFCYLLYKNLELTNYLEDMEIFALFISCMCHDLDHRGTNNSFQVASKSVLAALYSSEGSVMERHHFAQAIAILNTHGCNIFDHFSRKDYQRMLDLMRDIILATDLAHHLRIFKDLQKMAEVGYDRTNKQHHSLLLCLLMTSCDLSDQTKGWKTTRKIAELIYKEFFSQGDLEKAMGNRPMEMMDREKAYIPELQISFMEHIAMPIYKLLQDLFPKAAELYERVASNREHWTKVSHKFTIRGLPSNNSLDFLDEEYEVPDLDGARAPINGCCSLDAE
Type: biochemical, bovine

Question: How did the pIC50 turn out when `COc1cc2c(cc1OC)N(C)C(=O)CN=C2c1cccc(C#N)c1` [Compound 4a, 3-(7,8-dimethoxy-1-methyl-2-oxo-2,3-dihydro-1H-1,4-benzodiazepin-5-yl)-benzonitrile] was run?
Answer: 5.17

Question: With `COc1cc2c(cc1OC)N(Cc1ccccc1)C(=O)CN=C2c1cccc(C#N)c1` [Compound 4m, 3-(1-benzyl-7,8-dimethoxy-2-oxo-2,3-dihydro-1H-1,4-benzodiazepin-5-yl)benzonitrile] as the compound, how does the pIC50 read?
Answer: 5.82

Question: How did the pIC50 turn out when `CCOC(=O)CN1C(=O)CN=C(c2cccc(C#N)c2)c2cc(OC)c(OC)cc21` [Compound 4n, Ethyl[5-(3-cyanophenyl)-7,8-dimethoxy-2-oxo-2,3-dihydro-1H-1,4-benzodiazepin-1-yl]acetate] was run?
Answer: 5.43

Question: With `COc1cc2c(cc1OC)C(c1cccc(C(N)=O)c1)=NCC(=O)N2` [Compound 5e, 3-(7,8-dimethoxy-2-oxo-2,3-dihydro-1H-1,4-benzodiazepin-5-yl)benzamide] as the compound, how does the pIC50 read?
Answer: 5.18

Question: `CCCN1C(=O)CN=C(c2cccc(C(N)=O)c2)c2cc(OC)c(OC)cc21` [Compound 5f, 3-(7,8-dimethoxy-1-propyl-2-oxo-2,3-dihydro-1H-1,4-benzodiazepin-5-yl)benzamide] was tested. Which pIC50 did it give?
Answer: 4.90

Question: With `CCN1C(=O)CN=C(c2cccc(C(N)=O)c2)c2cc(OC)c(OC)cc21` [Compound 5g, 3-(1-ethyl-7,8-dimethoxy-2-oxo-2,3-dihydro-1H-1,4-benzodiazepin-5-yl)benzamide] as the compound, how does the pIC50 read?
Answer: 4.61

Question: How did the pIC50 turn out when `COc1cc2c(cc1OC)N(C)C(=O)C(C)N=C2c1cccc(C(N)=O)c1` (centres unmarked) [Compound 5j, 3-(7,8-dimethoxy-1,3-dimethyl-2-oxo-2,3-dihydro-1H-1,4-benzodiazepin-5-yl) benzamide] was run?
Answer: 5.35

Question: How did the pIC50 turn out when `COc1ccc2c(c1)N(C)C(=O)CN=C2c1cccc(C(N)=O)c1` [Compound 5l, 3-(8-methoxy-1-methyl-2-oxo-2,3-dihydro-1H-1,4-benzodiazepin-5-yl)benzamide] was run?
Answer: 4.85

Question: How did the pIC50 turn out when `COc1cc2c(cc1OC)N(C)C(=O)CN=C2c1cccc(C#CCNC(=O)OC(C)(C)C)c1` [Compound 6a, Tert-butyl-3-[3-(7,8-dimethoxy-1-methyl-2-oxo-2,3-dihydro-1H-1,4-benzodiazepin-5-yl)phenyl]propynylcarbamate] was run?
Answer: 5.08

Question: How did the pIC50 turn out when `CCCCC#Cc1cccc(C2=NCC(=O)N(C)c3cc(OC)c(OC)cc32)c1` [Compound 6b, 7,8-dimethoxy-5-(3′-hex-1-ynylphenyl)-1-N-methyl-1,3-dihydro-2H-1,4-benzodiazepin-2-one] was run?
Answer: 5.97

Question: With `COc1cc2c(cc1OC)N(C)C(=O)CN=C2c1cccc(C#CCN2CCCCC2)c1` [Compound 6c, 7,8-dimethoxy-1-methyl-5-[3-(3-piperidin-1-ylprop-1-ynyl)phenyl]-1,3-dihydro-2H-1,4-benzodiazepin-2-one] as the compound, how does the pIC50 read?
Answer: 5.37

Question: `CCCCCCc1cccc(C2=NCC(=O)N(C)c3cc(OC)c(OC)cc32)c1` [Compound 6e, 7,8-dimethoxy-5-(3′-hexylphenyl)-1-N-methyl-1,3-dihydro-2H-1,4-benzodiazepin-2-one] was tested. Which pIC50 did it give?
Answer: 6.44

Same assay, conditions: 10 μM test compound; PDE2 from bovine endothelial cells

Question: `COc1cc2c(cc1OC)C(c1cccc(C(F)(F)F)c1)=NCC(=O)N2` [Compound 3d, 7,8-dimethoxy-[5-(3-trifluoromethyl)phenyl]-1,3-dihydro-2H-1,4-benzodiazepin-2-one] was tested. Which “PDE2 percentage inhibition at 10 μM” value did it give?
Answer: 22%

Question: With `COc1cc2c(cc1OC)N(Cc1ccc(Cl)c(Cl)c1)C(=O)CN=C2c1cccc(C#N)c1` [Compound 4d, 3-[1-(3,4-chlorobenzyl)-7,8-dimethoxy-2-oxo-2,3-dihydro-1H-1,4-benzodiazepin-5-yl]-benzonitrile] as the compound, how does the “PDE2 percentage inhibition at 10 μM” value read?
Answer: 47.6%

Question: With `COc1ccc(CN2C(=O)CN=C(c3cccc(C#N)c3)c3cc(OC)c(OC)cc32)cc1` [Compound 4e, 3-[7,8-dimethoxy-l-(4-methoxybenzyl)-2-oxo-2,3-dihydro-1H-1,4-benzodiazepin-5-yl]-benzonitrile] as the compound, how does the “PDE2 percentage inhibition at 10 μM” value read?
Answer: 13.9%

Same assay, conditions: 10 μM test compound; PDE2 from bovine endothelial cells; read-out: PDE2 percentage inhibition at 10 μM

Question: Which inhibition at 10 µM does the source give for `COc1cc2c(c(Br)c1OC)N(C)C(=O)CN=C2c1cccc(C(N)=O)c1` [Compound 5d, 3-(9-bromo-7,8-dimethoxy-1-methyl-2-oxo-2,3-dihydro-1H-1,4-benzodiazepin-5-yl)benzamide] here?
Answer: 19.2%

Same assay, conditions: read-out: PDE2 percentage inhibition at 10 μM

Question: How did the inhibition at 10 µM turn out when `COc1cc2c(cc1OC)N(Cc1ccc(Cl)cc1)C(=O)CN=C2c1cccc(C#N)c1` [Compound 4c, 3-[1-(4-chlorobenzyl)-7,8-dimethoxy-2-oxo-2,3-dihydro-1H-1,4-benzodiazepin-5-yl]-benzonitrile] was run?
Answer: 35.3%

Question: `COc1cc2c(cc1OC)N(Cc1cccc(Cl)c1)C(=O)CN=C2c1cccc(C#N)c1` [Compound 4f, 3-[1-(3-chlorobenzyl)-7,8-dimethoxy-2-oxo-2,3-dihydro-1H-1,4-benzodiazepin-5-yl]-benzonitrile] was tested. Which inhibition at 10 µM did it give?
Answer: 17.1%

Question: `COc1cc2c(cc1OC)N(Cc1cccc(C(F)(F)F)c1)C(=O)CN=C2c1cccc(C#N)c1` [Compound 4g, 3-{7,8-dimethoxy-2-oxo-1-[3-(trifluoromethyl)benzyl]-2,3-dihydro-1H-1,4-benzodiazepin-5-yl]-benzonitrile] was tested. Which inhibition at 10 µM did it give?
Answer: 14.3%

Question: `COc1cc2c(cc1OC)N(Cc1ccccc1Cl)C(=O)CN=C2c1cccc(C#N)c1` [Compound 4h, 3-[1-(2-chlorobenzyl)-7,8-dimethoxy-2-oxo-2,3-dihydro-1H-1,4-benzodiazepin-5-yl]-benzonitrile] was tested. Which inhibition at 10 µM did it give?
Answer: 16%

Question: `COc1cc2c(cc1OC)N(Cc1ccc(C(F)(F)F)cc1)C(=O)CN=C2c1cccc(C#N)c1` [Compound 4i, 3-{7,8-dimethoxy-2-oxo-1-[4-(trifluoromethyl)benzyl]-2,3-dihydro-1H-1,4-benzodiazepin-5-yl}-benzonitrile] was tested. Which inhibition at 10 µM did it give?
Answer: 15.7%

Question: For `COc1cc2c(cc1OC)N(CCc1ccccc1)C(=O)CN=C2c1cccc(C#N)c1` [Compound 4j, 3-[7,8-dimethoxy-2-oxo-1-(2-phenylethyl)-2,3-dihydro-1H-1,4-benzodiazepin-5-yl]-benzonitrile], which inhibition at 10 µM is on record?
Answer: 5.6%

Question: `CCN1C(=O)CN=C(c2cccc(C#N)c2)c2cc(OC)c(OC)cc21` [Compound 4k, 3-(1-ethyl-7,8-dimethoxy-2-oxo-2,3-dihydro-1H-1,4-benzodiazepin-5-yl)benzonitrile] was tested. Which inhibition at 10 µM did it give?
Answer: 75.9%

Question: How did the inhibition at 10 µM turn out when `CCCN1C(=O)CN=C(c2cccc(C#N)c2)c2cc(OC)c(OC)cc21` [Compound 4l, 3-(7,8-dimethoxy-1-propyl-2-oxo-2,3-dihydro-1H-1,4-benzodiazepin-5-yl)benzonitrile] was run?
Answer: 72.1%

Question: For `CCN1C(=O)CN=C(c2cccc(C(F)(F)F)c2)c2cc(OC)c(OC)cc21` [Compound 4q, 7,8-dimethoxy-1-ethyl-5-[3-(trifluoromethyl)phenyl]-1,3-dihydro-2H-1,4-benzodiazepin-2-one], which inhibition at 10 µM is on record?
Answer: 32%

Question: With `CCCN1C(=O)CN=C(c2cccc(C(F)(F)F)c2)c2cc(OC)c(OC)cc21` [Compound 4r, 5-[3-(trifluoromethyl)phenyl]-7,8-dimethoxy-1-n-propyl-1,3-dihydro-1,4-benzodiazepin-2-one] as the compound, how does the inhibition at 10 µM read?
Answer: 34%

Question: How did the inhibition at 10 µM turn out when `COc1cc2c(cc1OC)N(Cc1ccccc1)C(=O)CN=C2c1cccc(C(F)(F)F)c1` [Compound 4s, 1-benzyl-5-[3-(trifluoromethyl)phenyl]-7,8-dimethoxy-1,3-dihydro-1,4-benzodiazepin-2-one] was run?
Answer: 14%

Question: How did the inhibition at 10 µM turn out when `COc1cc2c(c(-c3ccccc3)c1OC)C(c1cccc(C(N)=O)c1)=NCC(=O)N2C` [Compound 5c, 3-(7,8-dimethoxy-1-methyl-2-oxo-6-phenyl-2,3-dihydro-1H-1,4-benzodiazepin-5-yl)benzamide] was run?
Answer: 53.3%

Question: Which inhibition at 10 µM does the source give for `COc1cc2c(cc1OC)N(Cc1ccccc1)C(=O)CN=C2c1cccc(C(N)=O)c1` [Compound 5h, 3-(1-benzyl-7,8-dimethoxy-2-oxo-2,3-dihydro-1H-1,4-benzodiazepin-5-yl)benzamide] here?
Answer: 0%

Question: Which inhibition at 10 µM does the source give for `CCOC(=O)CN1C(=O)CN=C(c2cccc(C(N)=O)c2)c2cc(OC)c(OC)cc21` [Compound 5i, Ethyl{5-[3-(aminocarbonyl)phenyl]-7,8-dimethoxy-2-oxo-2,3-dihydro-1H-1,4-benzodiazepin-1-yl}acetate] here?
Answer: 0%

Question: How did the inhibition at 10 µM turn out when `COc1cc2c(cc1OC)N(C)C(=O)C(Cc1ccc(Cl)c(Cl)c1)N=C2c1cccc(C(N)=O)c1` (centres unmarked) [Compound 5k, 3-[3-(3,4-dichlorobenzyl)-7,8-dimethoxy-1-methyl-2-oxo-2,3-dihydro-1H-1,4-benzodiazepin-5-yl]benzamide] was run?
Answer: 67.8%

Question: Which inhibition at 10 µM does the source give for `COc1cc2c(c(-c3ccccc3)c1OC)N(C)C(=O)CN=C2c1cccc(C(N)=O)c1` [Compound 5m, 3-(7,8-dimethoxy-1-methyl-2-oxo-9-phenyl-2,3-dihydro-1H-1,4-benzodiazepin-5-yl)benzamide] here?
Answer: 5.9%
